According to patent publication US20240368209A1, “GEMCITABINE ANTICANCER DERIVATIVE AND ANTICANCER PHARMACEUTICAL USE” (ASCENTAWITS PHARMACEUTICALS, LTD., priority 2021, published 2024):
Several values for one entry are separate records, joined by “and”; a condition that tells them apart may be missing. Identical values can stand only once. Like-named read-outs stand apart in the source and are kept apart here.

Assays:
[1] = Plasma stability in mouse plasma; format: in vitro ADME
Protocol: (§1) The final concentration of organic solvents was 0.5%. The test was conducted in duplicate. • C.
(§2) Samples were analyzed with LC-MS/MS. All calculations were conducted using Microsoft Excel.

[2] = Metabolic stability in monkey liver microsomes; format: in vitro ADME
Protocol: (§3) Main solutions were prepared according to Table 9 below:
(§4) (II) Two Separate Experiments were Performed • a) With cofactor (NADPH): 25 μL of 10 mM NADPH was added to the culture broth. The final concentration of liver microsomes was 0.5 mg/mL, and the final concentration of NADPH was 1 mM. • b) Without cofactor (NADPH): 25 μL of 100 mM phosphate buffer was added. The final concentration of liver microsomes was 0.5 mg/mL. The mixture was preheated at 37° C. for 10 minutes. (III) 25 μL of […] control compound or test compound solution was added to start the reaction. […] The final concentrations of the test compound and control compound were both 1 μM. The culture broth was cultured in water at 37° C. (IV) Aliquots of 30 μL were collected from the reaction solution at 0.5, 5, 15, 30, and 60 minutes, respectively. 5 volumes of cold acetonitrile and IS (internal standard, containing 100 nM of alprazolam, 200 nM of caffeine, and 100 nM of tolylbutanamide) were added to stop the reaction. […] 100 μL of supernatant was taken and mixed with 100 μL of ultrapure water, equally divided and analyzed with LC-MS/MS.
(§5) All calculations were conducted using Microsoft Excel. The peak area was determined from the extracted ion chromatogram.
(§6) [formula] [formula] [formula] • wherein, QH is the hepatic blood flow (mL/min/kg) in Table 10, and fub is the fraction of drug unbound in plasma, and assumed as 1.

[3] = Metabolic stability in mouse liver microsomes; format: in vitro ADME
Protocol: as §3, §4, §5, §6

[4] = system: H460 cancer cells; experiment: Inhibition of H460 cancer cells in the presence or absence of AKR1C3 inhibitor AST-3021 (section 2.1); format: cell-based, human; settings: AST-3021 3 μM, read-out: IC50 (nmol/L) AST-3021 added
Protocol: The experimental scheme was as follows: • 1) H460 cell suspension was added to a 96-well plate with 100 μL per well at a cell density of 2000/well. • 2) Cells were incubated in an incubator of 37° C., 5% CO2 overnight. • 3) Compound treatment
Combined administration: 24 hours after cell plating, 98 μL of growth medium per well was added. 1 μL of AST-3021 was added to each well (final concentration 3 μM), and the plate was shaken gently to ensure even mixing, and then placed into an incubator; after 2 hours, 1 μL of the test compound at different concentrations was added, and the plate was shaken gently to ensure even mixing, and then placed into an incubator of 37° C., 5% CO2.
Administration of the drug alone: 24 hours after cell plating, 99 μL of growth medium per well was added.
In order to further verify that the compound was activated specifically by human AKR1C3 (aldosterone reductase family 1 member C3), the compound was added following the pretreatment of cells with the specific AKR1C3 enzyme inhibitor AST-3021 (3 μM), and the effect of the presence of AST-3021 on the proliferation of H460 cancer cells was tested
IC50 data of inhibitory effect of the compounds gemcitabine and H11 on H460 cancer cells in the presence or absence of the AKR1C3 inhibitor AST-3021 is shown in Table 2 and Table 3.

[5] = Metabolic stability in rat liver microsomes; format: in vitro ADME
Protocol: as §3, §4, §5, §6

[6] = Plasma stability in human plasma; format: in vitro ADME
Protocol: as §1, §2

[7] = read-out: In vitro half-life t1/2
[8] = read-out: In vitro intrinsic clearance CLint

SMILES: CC(C)NP(=O)(OCc1ccc([N+](=O)[O-])c(Oc2ccc(-c3ccc(F)cc3)c(F)c2)c1)OCC1OC(C2N=CC(N)=NC2=O)C(F)(F)C1O (stereo not shown) [Compound H11]
- t1/2 (min) [1]: ∞
- Remaining percentage (%) ([1]; 0 min, 5 μM, 37° C.): 100.00%
- plasma stability (in words) ([1]; 37° C., at least 2 hours): stable and has no significant metabolism
- Remaining percentage (%) ([1]; 15 min): 102.19%
- Remaining percentage (%) ([1]; 30 min): 96.83%
- Remaining percentage (%) ([1]; 60 min): 104.70%
- Remaining percentage (%) ([1]; 120 min): 97.53%
- Hepatic Extraction Ratio (ER) [2]: 0.88
- Predicted Hepatic CLH [2]: 38.81 mL/min/kg
- clearance and stability in liver microsomes (in words) [2]: high clearance and poor stability
- Remaining percentage (%) ([2]; NADPH added, 0.5 minutes, 1 μM): 100.00%
- Remaining percentage (%) ([2]; NADPH added, 5 minutes): 46.01%
- Remaining percentage (%) ([2]; NADPH added, 15 minutes): 13.27%
- Remaining percentage (%) ([2]; NADPH added, 30 minutes): 0.59%
- Remaining percentage (%) ([2]; NADPH added, 60 minutes): 0.09%
- Remaining percentage (%) ([2]; NADPH not added, 0.5 minutes): 100.00%
- Remaining percentage (%) ([2]; NADPH not added, 60 minutes): 105.87%
- half-life at 1 μM ([2]; monkey, read-out: In vitro half-life t1/2): 5.06 min
- microsomal CLint at 1 μM ([2]; monkey, read-out: In vitro intrinsic clearance CLint): 275 µL/min/mg
- CLint scaled at 1 μM ([2]; monkey, read-out: Scale-up CLint): 330 mL/min/kg
- Hepatic Extraction Ratio (ER) [3]: 0.73
- Predicted Hepatic CLH [3]: 65.90 mL/min/kg
- clearance and stability in liver microsomes (in words) [3]: medium clearances and certain stability
- Remaining percentage (%) ([3]; NADPH added, 0.5 minutes, 1 μM): 100.00%
- Remaining percentage (%) ([3]; NADPH added, 5 minutes): 85.55%
- Remaining percentage (%) ([3]; NADPH added, 15 minutes): 55.03%
- Remaining percentage (%) ([3]; NADPH added, 30 minutes): 36.05%
- Remaining percentage (%) ([3]; NADPH added, 60 minutes): 16.85%
- Remaining percentage (%) ([3]; NADPH not added, 0.5 minutes): 100.00%
- Remaining percentage (%) ([3]; NADPH not added, 60 minutes): 93.32%
- half-life at 1 μM [3, 7]: 23.3 min
- microsomal CLint at 1 μM [3, 8]: 59.5 µL/min/mg
- CLint scaled at 1 μM ([3]; read-out: Scale-up CLint): 246 mL/min/kg
- IC50 ([4]; H460): 1470 nmol/L and 2350 nmol/L
- IC50 ([4]; Homo sapiens, NCI-H460, H460): 2940 nmol/L
- Hepatic Extraction Ratio (ER) [5]: 0.71
- Predicted Hepatic CLH [5]: 48.43 mL/min/kg
- clearance and stability in liver microsomes (in words) [5]: medium clearances and certain stability
- Remaining percentage (%) ([5]; NADPH added, 0.5 minutes, 1 μM): 100.00%
- Remaining percentage (%) ([5]; NADPH added, 5 minutes): 85.67%
- Remaining percentage (%) ([5]; NADPH added, 15 minutes): 56.17%
- Remaining percentage (%) ([5]; NADPH added, 30 minutes): 29.55%
- Remaining percentage (%) ([5]; NADPH added, 60 minutes): 13.20%
- Remaining percentage (%) ([5]; NADPH not added, 0.5 minutes): 100.00%
- Remaining percentage (%) ([5]; NADPH not added, 60 minutes): 103.20%
- half-life at 1 μM [5, 7]: 20.1 min
- microsomal CLint at 1 μM [5, 8]: 69 µL/min/mg
- CLint scaled at 1 μM ([5]; read-out: Scale-up CLint): 168 mL/min/kg
- t1/2 (min) [6]: ∞
- Remaining percentage (%) ([6]; 0 min, 5 μM, 37° C.): 100.00%
- plasma stability (in words) ([6]; 37° C., at least 2 hours): stable and has no significant metabolism
- Remaining percentage (%) ([6]; 15 min): 95.74%
- Remaining percentage (%) ([6]; 30 min): 94.17%
- Remaining percentage (%) ([6]; 60 min): 102.77%
- Remaining percentage (%) ([6]; 120 min): 99.46%
